The subject of test [1] is 10 bp pvirB FID DNA probes. Kind of test: Fluorescence intercalator displacement (FID) assay, 10 bp probes. It is filed as binding, Shigella flexneri. The settings on record: for 10 bp pvirB 51–60 FID probe %fluorescence: ethidium bromide 7.5 μM, probe 1.5 μM. As to the method: The FID protocol was based on previously published studies and was conducted in triplicate. For the assay, black, half-area, 96-well plates (Corning, Twerksbury, MA) were used. First, 70 μL of ethidium bromide in Tris Buffer (0.1 M Tris HCl, 0.1 M NaCl, pH 8.0) was added to all wells. The concentration of ethidium bromide was contingent upon the length of the DNA probe that was used. For the 60 bp pvirB FID DNA probe, the final ethidium bromide concentration used was 45 μM; whereas, for the 10 bp pvirB (51–60) FID DNA probe, the final ethidium bromide concentration used was 7.5 μM. Next, 10 μL of either pvirB FID DNA probes (10 or 60 bp) in TE/NaCl buffer (see above) or 10 μL of TE/NaCl buffer (background fluorescence control) were added to the appropriate wells of the plate. The final concentrations of the pvirB FID DNA probes were 1.5 μM. Lastly, 20 μL of test compound (either 19615 or Berenil) in 10% DMSO Tris Buffer or 20 μL of 10% DMSO Tris Buffer (100% fluorescence control) were added to the appropriate wells of the plate. […] After the addition of all reagents, the plates were protected from light and allowed to equilibrate for 30 min on an orbital shaker at room temperature. Following equilibration, fluorescence was measured […] using a Biotek Synergy H1 plate reader (Winooski, VT). The average background fluorescence was subtracted from all data generated and %fluorescence was calculated for all wells containing compound via the following formula: %fluorescence=Ftest/F100%^*100 where: Ftest = the average fluorescence value obtained for each test compound and F100% = the average fluorescence value obtained for each 100% fluorescence control.

Test [2] concerns 60 bp pvirB FID DNA probe. The test can be described thus: Fluorescence intercalator displacement (FID) assay, 60 bp probe. The conditions noted are these: for 60 bp pvirB FID probe %fluorescence: ethidium bromide 45 μM, probe 1.5 μM. It is filed as binding, Shigella flexneri. As to the method: The FID protocol was based on previously published studies and was conducted in triplicate. For the assay, black, half-area, 96-well plates (Corning, Twerksbury, MA) were used. First, 70 μL of ethidium bromide in Tris Buffer (0.1 M Tris HCl, 0.1 M NaCl, pH 8.0) was added to all wells. The concentration of ethidium bromide was contingent upon the length of the DNA probe that was used. For the 60 bp pvirB FID DNA probe, the final ethidium bromide concentration used was 45 μM; whereas, for the 10 bp pvirB (51–60) FID DNA probe, the final ethidium bromide concentration used was 7.5 μM. Next, 10 μL of either pvirB FID DNA probes (10 or 60 bp) in TE/NaCl buffer (see above) or 10 μL of TE/NaCl buffer (background fluorescence control) were added to the appropriate wells of the plate. The final concentrations of the pvirB FID DNA probes were 1.5 μM. Lastly, 20 μL of test compound (either 19615 or Berenil) in 10% DMSO Tris Buffer or 20 μL of 10% DMSO Tris Buffer (100% fluorescence control) were added to the appropriate wells of the plate. The final concentrations of each test compound ranged from 12.5 μM to 100 μM. After the addition of all reagents, the plates were protected from light and allowed to equilibrate for 30 min on an orbital shaker at room temperature. Following equilibration, fluorescence was measured […] using a Biotek Synergy H1 plate reader (Winooski, VT). The average background fluorescence was subtracted from all data generated and %fluorescence was calculated for all wells containing compound via the following formula: %fluorescence=Ftest/F100%^*100 where: Ftest = the average fluorescence value obtained for each test compound and F100% = the average fluorescence value obtained for each 100% fluorescence control.

Where “and” joins values, the source holds several entries; their conditions need not be identical. Identical values can stand only once.

Consider `CN(C)CCOc1nc(-c2ccccc2)nc2c1oc1ccccc12` [compound 19615], for which, in test [1] (compound 2 μM, preliminary FID screen, 5'-AATAAAGATA-3'), the “%fluorescence, 10 bp fragment pvirB 21-30” value is on record as 92% ± 1%. In test [1] (compound 2 μM, preliminary FID screen, 5'-AATTGCATCA-3'), the “%fluorescence, 10 bp fragment pvirB 31-40” value is 94% ± 2%. Also, the “%fluorescence, 10 bp fragment pvirB 1-10” value in test [1] (compound 2 μM, preliminary FID screen, 5'-AGAATATTAT-3') is reported as 93% ± 6%. The “%fluorescence, 10 bp fragment pvirB 41-50” value in test [1] (compound 2 μM, preliminary FID screen, 5'-ATCCAGCTAT-3') is given as 94% ± 1%. Also, the “%fluorescence, 10 bp fragment pvirB 51-60” value in test [1] (compound 2 μM, preliminary FID screen, 5'-TAAAATAGTA-3') is 92% and 92% ± 0%. The “%fluorescence, 10 bp fragment pvirB 11-20” value in test [1] (compound 2 μM, preliminary FID screen, 5'-TCTTTTATCC-3') was 95% ± 3%. Further, the “10 bp pvirB 51–60 FID probe %fluorescence” value was 97% ± 2% in test [1] (compound 12.5 μM), 97% ± 3% in test [1] (compound 25 μM), 97% ± 2% in test [1] (compound 50 μM) and 95% ± 1% in test [1] (compound 100 μM). In addition, in test [2] (12.5 to 100 μM, both 60 bp and 10 bp probes), the “Displacement of ethidium bromide from the pvirB DNA probes (FID)” value is recorded as “not able to displace ethidium bromide”. Moreover, the “60 bp pvirB FID probe %fluorescence” value is 93% ± 3% in test [2] (compound 12.5 μM), 97% ± 2% in test [2] (compound 25 μM), 95% ± 2% in test [2] (compound 50 μM) and 93% ± 3% in test [2] (compound 100 μM).

These data come from PMC4564171 (PLoS ONE, 2015).
